Biological target: Estrogen receptor (Homo sapiens) (UniProt P03372)
Assay: ERα transcriptional antagonism in reporter cells, dose response, orthogonal assay for ERα coactivator binding inhibitor project, HEC-1 cells, luciferase reporter, 1 nM E2 (AID 1078)
Conditions: ERE-luciferase reporter, 1 nM E2, 24 h

Estrogen receptor (Homo sapiens), sequence (P03372 whole entry, looked up): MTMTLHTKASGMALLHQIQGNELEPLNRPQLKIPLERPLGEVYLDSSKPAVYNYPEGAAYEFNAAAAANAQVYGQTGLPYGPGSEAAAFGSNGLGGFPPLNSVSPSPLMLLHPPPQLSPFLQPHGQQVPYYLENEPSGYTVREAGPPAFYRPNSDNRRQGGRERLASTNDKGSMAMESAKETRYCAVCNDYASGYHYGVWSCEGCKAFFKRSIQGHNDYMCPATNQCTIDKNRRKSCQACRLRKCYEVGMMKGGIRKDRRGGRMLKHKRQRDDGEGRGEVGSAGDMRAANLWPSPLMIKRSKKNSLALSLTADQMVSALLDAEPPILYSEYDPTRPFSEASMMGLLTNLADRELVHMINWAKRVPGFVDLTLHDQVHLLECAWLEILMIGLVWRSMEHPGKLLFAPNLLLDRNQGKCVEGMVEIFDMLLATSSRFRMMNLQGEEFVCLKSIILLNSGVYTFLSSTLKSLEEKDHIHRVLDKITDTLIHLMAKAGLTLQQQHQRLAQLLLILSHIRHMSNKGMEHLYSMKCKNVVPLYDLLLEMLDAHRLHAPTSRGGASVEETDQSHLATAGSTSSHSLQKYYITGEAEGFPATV

IC50: 4.65 µM
Compound: Cc1ccc(-n2c(=O)c(C#N)cc3c(=O)n4cccc(C)c4nc32)cc1
